In patent publication US6958233B2, “Process for the preparation of pharmaceutically acceptable salts of (R,S)-S-adenosyl-L-methionine” (Chementecno S.r.l., priority 2000, dated 2005):

Tests used:
[1] = HPLC analysis of the (S)-(+)-SAMe / (R)-(+)-SAMe diastereoisomer content (stability in time); format: physicochemical; details: after four months from the date of production
Description: 3 samples of SAMIR® [(R,S)-SAMe], produced by Knoll Farmaceutici S.p.A., were analyzed by HPLC. The values measured for each sample are as follows:
The products obtained according to the process of the invention in EXAMPLES 1-3, samples 4-6 respectively, were analyzed, similarly to what has been described in example 4, after four months from the date of their production.
The measured values for each sample were as follows: […]

[2] = test system: enzymatic transmethylation; details: De La Haba et al., J.A.C.S. 1959; cited from earlier work
[3] = Wu et al., Biochemistry 1983; cited from earlier work

Row | percentage of (R)-(+)-SAMe [1] | percentage of (S)-(+)-SAMe [1] | percentage of (R)-(+)-SAMe ([1]; listed as sample N. 4) | Structure (SMILES) | enzymatic activity for the transmethylation [2] | formation of the inactive diastereoisomer (R)-(+)-SAMe by spontaneous racemisation [3]
1 | 1% | 99% | 1% | C[S+](CC[C@H](N)C(=O)[O-])C[C@H]1O[C@@H](n2cnc3c(N)ncnc32)[C@H](O)[C@@H]1O.Cc1ccc(S(=O)(=O)O)cc1.O=S(=O)(O)O.O=S(=O)(O)O (single isomer, unassigned) [SAMPLE 4] |  | 
2 | 2% | 98% |  | C[S+](CC[C@H](N)C(=O)[O-])C[C@H]1O[C@@H](n2cnc3c(N)ncnc32)[C@H](O)[C@@H]1O.Cc1ccc(S(=O)(=O)O)cc1.O=S(=O)(O)O.O=S(=O)(O)O (single isomer, unassigned) [SAMPLE 6] |  | 
3 | 2% | 98% |  | C[S+](CC[C@H](N)C(=O)[O-])C[C@H]1O[C@@H](n2cnc3c(N)ncnc32)[C@H](O)[C@@H]1O.Cc1ccc(S(=O)(=O)O)cc1.O=S(=O)(O)O.O=S(=O)(O)O (single isomer, unassigned) [SAMPLE 5, (SS, RS)-SAMe disulphate paratoluensulphonate] |  | 

More lines, now with the values behind:

Row | Structure (SMILES) | percentage of (R)-(+)-SAMe [1] | percentage of (S)-(+)-SAMe [1] | percentage of (R)-(+)-SAMe ([1]; listed as sample N. 4) | enzymatic activity for the transmethylation [2] | formation of the inactive diastereoisomer (R)-(+)-SAMe by spontaneous racemisation [3]
4 | C[S@@+](CC[C@H](N)C(=O)[O-])C[C@H]1O[C@@H](n2cnc3c(N)ncnc32)C(O)C1O (stereo in doubt) [(R)-(+)-SAMe, (R)-(+)-S-adenosyl-L-methionine] |  |  |  | inactive | 
5 | C[S@@+](CC[C@H](N)C(=O)[O-])C[C@H]1O[C@@H](n2cnc3c(N)ncnc32)C(O)C1O (stereo in doubt) [(S)-(+)-SAMe, (S)-(+)-S-adenosyl-L-methionine] |  |  |  | enzymatically active | about 20%
